Results taken from ChEMBL document CHEMBL5252520, “Inhibition of phospho-MurNAc-pentapeptide translocase (MraY) by nucleoside natural product antibiotics, bacteriophage ϕX174 lysis protein E, and cationic antibacterial peptides” (Bioorg Med Chem, 2016).
≈ marks a conversion by molar mass, not a printed value. Residues, ends and D or L forms follow the SMILES beside them.

Key:
[1] = Inhibition of bacterial MraY; set-up: species or system Bacteria
[2] = tested on: Pseudomonas aeruginosa; test: Antibacterial activity against Pseudomonas aeruginosa H103 assessed as reduction in bacterial growth; assay type: functional
[3] = tested on: Escherichia coli; test: Antibacterial activity against Escherichia coli assessed as reduction in bacterial growth; assay type: functional
[4] = tested on: Escherichia coli; test: Antibacterial activity against Escherichia coli assessed as inhibition of bacterial growth; assay type: functional
[5] = target: T1, Phospho-N-acetylmuramoyl-pentapeptide-transferase (Escherichia coli, UniProt E2QF15); test: Inhibition of recombinant Escherichia coli MraY by fluorescence based analysis
T1 sequence (E2QF15 whole entry): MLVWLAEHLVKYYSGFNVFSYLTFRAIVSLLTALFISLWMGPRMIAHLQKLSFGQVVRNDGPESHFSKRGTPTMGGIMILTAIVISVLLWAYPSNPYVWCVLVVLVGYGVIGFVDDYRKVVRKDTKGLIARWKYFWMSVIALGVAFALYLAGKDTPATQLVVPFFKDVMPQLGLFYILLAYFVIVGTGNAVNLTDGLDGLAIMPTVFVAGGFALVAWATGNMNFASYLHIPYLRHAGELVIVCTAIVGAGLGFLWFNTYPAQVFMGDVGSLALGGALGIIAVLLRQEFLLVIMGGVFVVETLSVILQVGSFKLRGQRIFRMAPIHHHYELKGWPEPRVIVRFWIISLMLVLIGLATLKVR

[6] = Inhibition of Bacillus subtilis TagO
[7] = target: T2, Phospho-N-acetylmuramoyl-pentapeptide-transferase (Bacillus subtilis (strain 168), UniProt Q03521); test: Inhibition of Bacillus subtilis MraY
T2 sequence (Q03521 whole entry): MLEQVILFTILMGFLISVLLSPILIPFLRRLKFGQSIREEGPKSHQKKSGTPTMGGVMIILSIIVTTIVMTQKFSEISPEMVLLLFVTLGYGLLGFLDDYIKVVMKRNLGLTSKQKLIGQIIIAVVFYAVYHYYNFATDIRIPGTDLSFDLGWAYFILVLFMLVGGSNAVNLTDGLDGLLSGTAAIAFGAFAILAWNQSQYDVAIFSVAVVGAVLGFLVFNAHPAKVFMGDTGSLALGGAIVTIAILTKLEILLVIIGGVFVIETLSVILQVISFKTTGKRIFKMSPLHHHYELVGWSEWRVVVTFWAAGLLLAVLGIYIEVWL

| SMILES | IC50 [1] [µM] | MIC [2] [µg/mL] | MIC [3] [µg/mL] | further results |
| --- | --- | --- | --- | --- |
| CC[C@H](C)[C@H](NC(=O)[C@H](CCCCN)NC(=O)[C@H](CCCCN)NC(=O)[C@H](Cc1ccccc1)NC(=O)[C@H](CC(C)C)NC(=O)[C@H](CCCCN)NC(=O)[C@H](Cc1c[nH]c2ccccc12)NC(=O)[C@@H](N)CCCCN)C(=O)N[C@@H](CCC(=O)O)C(=O)N[C@@H](CCCCN)C(=O)O (H-KWKLFKKIEK-OH) | – | 5 (≈ 3.71 µM) | 1 (≈ 0.742 µM) | – |
| CC[C@H](C)[C@H](NC(=O)[C@H](Cc1c[nH]c2ccccc12)NC(=O)[C@@H](NC(=O)[C@@H](NC(=O)[C@H](Cc1c[nH]c2ccccc12)NC(=O)[C@H](CCCNC(=N)N)NC(=O)[C@@H](N)CCCNC(=N)N)[C@@H](C)CC)C(C)C)C(=O)N[C@@H](CCCNC(=N)N)C(=O)O (H-RRWIVWIR-OH) | – | 8 (≈ 6.75 µM) | – | MIC [4]: 2 µg/mL (≈ 1.69 µM) |
| CC(C)C[C@H](NC(=O)[C@H](Cc1ccccc1)NC(=O)[C@@H]1CCCN1C(=O)[C@H](Cc1c[nH]c2ccccc12)NC(=O)[C@H](Cc1c[nH]c2ccccc12)NC(=O)[C@H](Cc1c[nH]c2ccccc12)NC(=O)[C@@H]1CCCN1C(=O)[C@H](Cc1ccccc1)NC(=O)[C@H](CCCNC(=N)N)NC(=O)[C@H](CCCNC(=N)N)NC(=O)[C@@H](N)C(C)C)C(=O)N[C@@H](CCCNC(=N)N)C(=O)N[C@@H](CCCNC(=N)N)C(=O)O | – | 1 (≈ 0.526 µM) | 20 (≈ 10.5 µM) | – |
| CC(C)C[C@H](NC(=O)CNC(=O)[C@H](Cc1c[nH]c2ccccc12)NC(=O)CN)C(=O)N[C@@H](Cc1c[nH]c2ccccc12)C(=O)O (H-GWGLW-OH) | 209 | – | – | – |
| CC[C@H](C)[C@H](N)C(=O)N[C@@H](CC(C)C)C(=O)N1CCC[C@H]1C(=O)N[C@@H](Cc1c[nH]c2ccccc12)C(=O)N[C@@H](CCCCN)C(=O)N[C@@H](Cc1c[nH]c2ccccc12)C(=O)N1CCC[C@H]1C(=O)N[C@@H](Cc1c[nH]c2ccccc12)C(=O)N[C@@H](Cc1c[nH]c2ccccc12)C(=O)N1CCC[C@H]1C(=O)N[C@@H](Cc1c[nH]c2ccccc12)C(=O)N[C@@H](CCCN=C(N)N)C(=O)N[C@@H](CCCN=C(N)N)C(N)=O | 90 | – | – | – |
| CC(C)[C@H](NC(=O)N[C@H](C(=O)N[C@H](C(=O)NCCCN[C@@H](C[C@H]1O[C@@H](n2ccc(=O)[nH]c2=O)[C@H](O)[C@@H]1O)C(=O)O)[C@@H](O)C(C)C)[C@@H]1CCNC(=N)N1)C(=O)O | – | – | – | IC50 [5]: 2 µM |
| CC(C)C[C@H](NC(=O)CNC(=O)CNC(=O)[C@@H](N)CCCNC(=N)N)C(=O)N[C@@H](Cc1c[nH]c2ccccc12)C(=O)O (H-RGGLW-OH) | 210 | – | – | – |
| CC(C)C[C@H](NC(=O)CNC(=O)[C@H](Cc1c[nH]c2ccccc12)NC(=O)[C@@H](N)CCCNC(=N)N)C(=O)NCC(=O)O (H-RWGLG-OH) | 274 | – | – | – |
| NC[C@H]1O[C@@H](O[C@@H](Cn2cc(CCCCCO)nn2)[C@H]2O[C@@H](n3ccc(=O)[nH]c3=O)[C@H](O)[C@@H]2O)[C@H](O)[C@@H]1O | – | – | – | IC50 [6]: 0.05 µg/mL (≈ 0.0922 µM) |
| CC(C)[C@H](NC(=O)[C@@H](NC(=O)[C@H](Cc1c[nH]c2ccccc12)NC(=O)[C@H](CCCNC(=N)N)NC(=O)[C@H](Cc1c[nH]c2ccccc12)NC(=O)[C@H](Cc1c[nH]c2ccccc12)NC(=O)[C@H](CCCCN)NC(=O)[C@H](Cc1c[nH]c2ccccc12)NC(=O)[C@H](Cc1c[nH]c2ccccc12)NC(=O)[C@H](CCCCN)NC(=O)CN)[C@@H](C)O)C(=O)N1CCC[C@H]1C(=O)N[C@@H](Cc1ccccc1)C(=O)O (H-GKWWKWWRWTVPF-OH) | – | – | 7 (≈ 3.76 µM) | – |
| CO[C@@H]1[C@@H](OC)[C@H](C)O[C@@H](OC(=O)C[C@@H](C)CC(=O)O[C@@H](CCCCCCCCCCC(C)C)CC(=O)O[C@H]2CN(C)[C@@H]([C@H](O[C@@H]3O[C@H](CN)[C@@H](O)[C@H]3O)[C@H]3O[C@@H](n4ccc(=O)[nH]c4=O)[C@H](O)[C@@H]3O)C(=O)N(C)[C@@H]2C(=O)O)[C@@H]1OC | – | – | – | IC50 [7]: 100 µM |
| CC[C@H](C)[C@H](NC(=O)[C@H](CCCNC(=N)N)NC(=O)[C@H](Cc1c[nH]c2ccccc12)NC(=O)[C@@H](NC(=O)[C@@H](NC(=O)[C@H](CC(C)C)NC(=O)[C@H](Cc1c[nH]c2ccccc12)NC(=O)[C@H](CCCNC(=N)N)NC(=O)[C@H](CCC(N)=O)NC(=O)[C@@H](N)C(C)C)[C@@H](C)CC)C(C)C)C(=O)N[C@@H](CCCNC(=N)N)C(=O)N[C@@H](CCCCN)C(=O)O (H-VQRWLIVWRIRK-OH) | 75 | – | – | MIC [4]: 8 µg/mL (≈ 4.84 µM) |
| CCCCCCCCOC(=O)[C@H](Cc1c[nH]c2ccccc12)NC(=O)CN | 790 | – | – | – |
| O=C(O)c1c(Cl)c(Cl)c(Cl)c(Cl)c1-c1c2cc(Br)c(=O)c(Br)c-2oc2c(Br)c(O)c(Br)cc12 | 32 | – | – | IC50 [7]: 850 µM |

Second part, led by results:

| IC50 [1] [µM] | MIC [2] [µg/mL] | MIC [3] [µg/mL] | SMILES | further results |
| --- | --- | --- | --- | --- |
| 50 | 19 (≈ 10.7 µM) | 38 (≈ 21.3 µM) | CC[C@H](C)[C@H](N)C(=O)N[C@@H](CC(C)C)C(=O)N[C@@H](CCCNC(=N)N)C(=O)N[C@@H](Cc1c[nH]c2ccccc12)C(=O)N1CCC[C@H]1C(=O)N[C@@H](Cc1c[nH]c2ccccc12)C(=O)N[C@@H](Cc1c[nH]c2ccccc12)C(=O)N1CCC[C@H]1C(=O)N[C@@H](Cc1c[nH]c2ccccc12)C(=O)N[C@@H](CCCNC(=N)N)C(=O)N[C@@H](CCCNC(=N)N)C(=O)N[C@@H](CCCCN)C(=O)O (H-ILRWPWWPWRRK-OH) | – |
| 233 | – | – | N=C(N)NCCC[C@H](N)C(=O)N[C@@H](Cc1c[nH]c2ccccc12)C(=O)NCC(=O)NCC(=O)N[C@@H](Cc1c[nH]c2ccccc12)C(=O)O (H-RWGGW-OH) | – |
| 0.8 | – | – | CSCC[C@H](N)C(=O)N[C@H](C(=O)N[C@@H](CCCNC(=N)N)C(=O)N[C@@H](Cc1c[nH]c2ccccc12)C(=O)N[C@H](C(=O)N[C@@H](CC(C)C)C(=O)N[C@@H](Cc1c[nH]c2ccccc12)C(=O)N[C@@H](CC(=O)O)C(=O)N[C@H](C(=O)N[C@@H](CC(C)C)C(=O)N[C@@H](C)C(=O)N[C@@H](Cc1ccccc1)C(=O)N[C@@H](CC(C)C)C(=O)N[C@@H](CC(C)C)C(=O)N[C@@H](CC(C)C)C(=O)O)[C@@H](C)O)[C@@H](C)O)C(C)C (H-MVRWTLWDTLAFLLL-OH) | – |
| – | 45 (≈ 45.2 µM) | 20 (≈ 20.1 µM) | CC(=O)N[C@@H](CCCNC(=N)N)C(=O)N[C@@H](CCCNC(=N)N)C(=O)N[C@@H](Cc1c[nH]c2ccccc12)C(=O)N[C@@H](Cc1c[nH]c2ccccc12)C(=O)N[C@@H](CS)C(=O)N[C@@H](Cc1ccccc1)C(=O)O (Ac-RRWWCF-OH) | – |
| > 1000 | 40 (≈ 84.6 µM) | 31 (≈ 65.6 µM) | CCCCCCCCOC(=O)[C@H](Cc1c[nH]c2ccccc12)NC(=O)[C@@H](N)CCCNC(=N)N | – |
| – | – | 24 (≈ 12.6 µM) | CSCC[C@H](NC(=O)[C@H](CCCNC(=N)N)NC(=O)[C@H](Cc1c[nH]c2ccccc12)NC(=O)[C@H](CCC(N)=O)NC(=O)[C@H](Cc1c[nH]c2ccccc12)NC(=O)[C@H](CCCNC(=N)N)NC(=O)[C@H](CCCNC(=N)N)NC(=O)[C@H](CS)NC(=O)[C@H](CCCCN)NC(=O)[C@@H](N)CCC(=O)O)C(=O)N[C@@H](CCCCN)C(=O)N[C@@H](CCCCN)C(=O)N[C@@H](CC(C)C)C(=O)NCC(=O)O (H-EKCRRWQWRMKKLG-OH) | – |
